In patent publication US8263598B2, “Substituted sulfonamide compounds” (Gruenenthal GmbH, priority 2008, dated 2012):

What was measured:
[1] = target: T1, human B1R receptor (hB1R) (Homo sapiens, UniProt P46663); assay: FLIPR Ca2+ assay on human bradykinin 1 receptor (CHO K1 hB1R cells); assay type: cell-based; details: test substance 10 μM; CHO K1 cells with human B1R gene; agonist Lys-Des-Arg9-bradykinin 0.5 nM; compared to maximum achievable inhibition
T1 construct: host or cells: CHO K1 cells
T1 sequence (P46663 1-353): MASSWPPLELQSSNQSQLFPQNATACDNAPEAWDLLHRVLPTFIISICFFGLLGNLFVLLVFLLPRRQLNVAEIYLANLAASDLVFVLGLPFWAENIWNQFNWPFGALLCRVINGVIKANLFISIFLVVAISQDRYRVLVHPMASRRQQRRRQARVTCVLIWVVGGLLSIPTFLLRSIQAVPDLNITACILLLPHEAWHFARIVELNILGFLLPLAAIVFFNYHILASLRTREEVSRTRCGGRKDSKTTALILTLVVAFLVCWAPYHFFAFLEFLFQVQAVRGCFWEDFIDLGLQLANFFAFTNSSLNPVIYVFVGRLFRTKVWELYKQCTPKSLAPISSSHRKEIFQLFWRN
Summary of the method: (§1)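 Values are percent inhibition of agonist-evoked Ca²⁺ influx, measured by Fluo-4 fluorescence peak in FLIPR relative to maximum achievable inhibition. Compound at 10 μM was preincubated 10 min on B1R-transfected CHO K1 cells before challenge with 0.5 nM Lys-Des-Arg9-bradykinin (human) or 100 nM Des-Arg9-bradykinin (rat).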

[2] = target: T2, B1R receptor of rats (rB1R) (Rattus norvegicus, UniProt P97583); assay: FLIPR Ca2+ assay on rat bradykinin 1 receptor (CHO K1 rB1R cells); assay type: cell-based; details: test substance 10 μM; CHO K1 cells with B1R gene of rats; agonist Des-Arg9-bradykinin 100 nM; compared to maximum achievable inhibition
T2 construct: host or cells: CHO K1 cells
T2 sequence (P97583 1-337): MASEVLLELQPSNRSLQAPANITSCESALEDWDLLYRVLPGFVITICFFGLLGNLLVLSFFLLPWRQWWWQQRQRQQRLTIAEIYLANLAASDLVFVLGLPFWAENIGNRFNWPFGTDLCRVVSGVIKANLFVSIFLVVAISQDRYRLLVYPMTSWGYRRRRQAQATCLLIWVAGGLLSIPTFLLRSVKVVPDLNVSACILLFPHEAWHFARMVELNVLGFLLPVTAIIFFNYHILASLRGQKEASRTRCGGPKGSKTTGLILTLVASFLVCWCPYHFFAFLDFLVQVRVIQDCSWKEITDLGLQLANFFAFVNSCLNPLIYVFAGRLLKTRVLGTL
Summary of the method: as §1

| SMILES | inhibition at 10 µM [1] [%] | inhibition at 10 µM [2] [%] | hB1R [10 μM] % Inhibition [1] [%] | rB1R [10 μM] % Inhibition [2] [%] |
| --- | --- | --- | --- | --- |
| COc1cc(C)c(S(=O)(=O)N(C)CCOCC(=O)N2CCn3c(CCCN4CCN(C)CC4)ccc3C2)c(C)c1 [Example 12, 4-methoxy-N,2,6-trimethyl-N-(2-(2-(6-(3-(4-methylpiperazin-1-yl)propyl)-3,4-dihydropyrrolo[1,2-a]pyrazin-2(1H)-yl)-2-oxoethoxy)ethyl)benzenesulfonamide] | 97 | 100 | – | – |
| COc1cc(C)c(S(=O)(=O)N(C)CCOCC(=O)N2CCn3cccc3C2c2cccnc2)c(C)c1C (stereo not shown) [Example 81, 4-methoxy-N,2,3,6-tetramethyl-N-(2-(2-oxo-2-(1-(pyridin-3-yl)-3,4-dihydropyrrolo[1,2-a]pyrazin-2(1H)-yl)ethoxy)ethyl)benzenesulfonamide] | 98 | 99 | – | – |
| Cc1cc(C)c(S(=O)(=O)N(C)CCOCC(=O)N2CCn3cccc3C2c2cccnc2)c(C)c1 (stereo not shown) [Example 67, N,2,4,6-tetramethyl-N-(2-(2-oxo-2-(1-(pyridin-3-yl)-3,4-dihydropyrrolo[1,2-a]pyrazin-2(1H)-yl)ethoxy)ethyl)benzenesulfonamide] | 99 | 100 | – | – |
| COc1cc(C)c(S(=O)(=O)N(CCOCC(=O)N2CCn3c(CN(C)C)ccc3C2Cc2ccccc2)Cc2ccccc2)c(C)c1 (stereo not shown) [Example 129, N-benzyl-N-(2-(2-(1-benzyl-6-((dimethylamino)methyl)-3,4-dihydropyrrolo[1,2-a]pyrazin-2-(1H)-yl)-2-oxoethoxy)ethyl)-4-methoxy-2,6-dimethylbenzene-sulfonamide] | – | – | 100 | 101 |

More lines, now with the values ahead:

| inhibition at 10 µM [1] [%] | inhibition at 10 µM [2] [%] | hB1R [10 μM] % Inhibition [1] [%] | rB1R [10 μM] % Inhibition [2] [%] | SMILES |
| --- | --- | --- | --- | --- |
| 101 | 99 | – | – | COc1cc(C)c(S(=O)(=O)N(C)CCOCC(=O)N2CCn3cccc3C2C)c(C)c1 (stereo not shown) [Example 53, 4-methoxy-N,2,6-trimethyl-N-(2-(2-(1-methyl-3,4-dihydropyrrolo[1,2-a]pyrazin-2(1H)-yl)-2-oxoethoxy)ethyl)benzenesulfonamide] |
| 91 | 102 | – | – | CCCC1c2cccn2CCN1C(=O)COCCN(CC(C)C)S(=O)(=O)c1c(C)cc(OC)c(C)c1C (stereo not shown) [Example 101, N-isobutyl-4-methoxy-2,3,6-trimethyl-N-(2-(2-oxo-2-(1-propyl-3,4-dihydropyrrolo[1,2-a]pyrazin-2(1H)-yl)ethoxy)ethyl)benzenesulfonamide] |
| 102 | 102 | – | – | COc1cc(C)c(S(=O)(=O)N(C)CCOCC(=O)N2CCn3c(CN(C)C)ccc3C2c2cccs2)c(C)c1 (stereo not shown) [Example 17, N-(2-(2-(6-((dimethylamino)methyl)-1-(thiophen-2-yl)-3,4-dihydropyrrolo[1,2-a]pyrazin-2(1H)-yl)-2-oxoethoxy)ethyl)-4-methoxy-N,2,6-trimethylbenzene-sulfonamide] |
| 39 | 69 | – | – | COc1cc(C)c(S(=O)(=O)N(CCOCC(=O)N2CCn3cccc3C2c2ccc(C)c(C)c2)Cc2ccccc2)c(C)c1 (stereo not shown) [Example 49, N-benzyl-N-(2-(2-(1-(3,4-dimethylphenyl)-3,4-dihydropyrrolo[1,2-a]pyrazin-2(1H)-yl)-2-oxoethoxy)ethyl)-4-methoxy-2,6-dimethylbenzenesulfonamide] |
